Results on 14 molecules are retold here after patent US9487490B2, “3-cyclohexenyl and cyclohexyl substituted indole and indazole compounds as RORgammaT inhibitors and uses thereof” (Merck Sharp & Dohme Corp., priority 2012, dated 2016).

human RORgammaT-Ligand Binding Domain (LBD), sequence (P51449 269-508): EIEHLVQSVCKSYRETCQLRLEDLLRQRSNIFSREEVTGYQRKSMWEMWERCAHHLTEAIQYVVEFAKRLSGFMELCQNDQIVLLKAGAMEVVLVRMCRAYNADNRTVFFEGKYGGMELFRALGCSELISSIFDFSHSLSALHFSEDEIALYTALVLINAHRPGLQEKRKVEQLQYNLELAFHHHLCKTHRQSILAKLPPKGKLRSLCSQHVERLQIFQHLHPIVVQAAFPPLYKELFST

In the assay the target is human RORgammaT-Ligand Binding Domain (LBD) (Homo sapiens (Human), UniProt P51449). Briefly: RORγ-Ligand Binding Domain TR-FRET assay (co-activator peptide SRC1_2 recruitment). Type of assay: biochemical. The conditions noted are these: HIS-tagged RORγ-LBD 3 nM, biotinylated SRC1 LXXLL peptide 100 nM, incubated overnight at 4° C., 665 nm/615 nm signal quotient; read-out: Fret IC50. The text has this:
Activation of RORgammaT activity can be measured using, e.g., biochemical TR-FRET assay. In such an assay, interaction of cofactor-derived peptides with human RORgammaT-Ligand Binding Domain (LBD) can be measured.
To identify novel antagonists of RORgammaT, an assay was developed which employs the interaction of RORgammaT with its co-activator peptide SRC1_2. […] The RORγ-Ligand Binding Domain TR-FRET Assay was run according to the following protocol.
HIS-tagged RORγ-LBD protein was expressed in SF9 cells using a baculovirus expression system. The RORγ-LBD protein was purified by glutathione sepharose chromatography. Separately, SF9 cells not expressing any recombinant protein were lysed and the lysate was added to the purified RORγ-LBD at 0.25 μl lysate (from 10,000 SF9 cells)/nM purified protein. The mixture was then diluted in assay buffer (50 mM Tris pH 7.0, 50 mM KCl, 1 mM EDTA, 0.1 mM DTT) to obtain RORγ-LBD final concentration of 3 nM in 384-well assay plate.
Compounds to be tested were injected to the assay plate using Acoustic Droplet Ejection technology by Echo 550 liquid handler (Labcyte, Calif.).
For the molecule `CC1(C(=O)O)CC=C(c2nn(C(=O)c3c(Cl)cccc3C3CC3)c3cccc(F)c23)CC1` (centres unmarked) [Example 1J, 4-(1-(2-chloro-6-cyclopropylbenzoyl)-4-fluoro-1H-indazol-3-yl)-1-methylcyclohex-3-enecarboxylic acid], the IC50 came out at 7 nM.
To `O=C(O)C1CCC(O)(c2nn(C(=O)c3c(Cl)cccc3C(F)(F)F)c3cccc(F)c23)CC1` (centres unmarked) [Example 13A, 4-(1-(2-chloro-6-(trifluoromethyl)benzoyl)-4-fluoro-1H-indazol-3-yl)-4-hydroxycyclohexanecarboxylic acid] belongs 2470 nM; to `CN(C)C(=O)c1ccc2c(C3=CCC(C(=O)O)CC3)nn(C(=O)c3c(Cl)cccc3C(F)(F)F)c2c1` (centres unmarked) [Example 1A, 4-(1-(2-chloro-6-(trifluoromethyl)benzoyl)-6-(dimethylcarbamoyl)-1H-indazol-3-yl)cyclohex-3-enecarboxylic acid], 18 nM.
In the case of `CC1CN(C(=O)c2ccc3c(C4=CCC(C(=O)O)CC4)nn(C(=O)c4c(Cl)cccc4C(F)(F)F)c3c2)CCO1` (centres unmarked) [Example 4J, 4-(1-(2-chloro-6-(trifluoromethyl)benzoyl)-6-(2-methylmorpholine-4-carbonyl)-1H-indazol-3-yl)cyclohex-3-enecarboxylic acid], the IC50 was 24 nM.
To `C[C@H]1CCCN1C(=O)c1ccc2c(C3=CCC(C(=O)O)CC3)nn(C(=O)c3c(Cl)cccc3C(F)(F)F)c2c1` (stereo partly drawn) [Example 4G, 4-(1-(2-chloro-6-(trifluoromethyl)benzoyl)-6-((S)-2-methylpyrrolidine-1-carbonyl)-1H-indazol-3-yl)cyclohex-3-enecarboxylic acid] belongs 6 nM; to `O=C(O)C1CC=C(c2nn(C(=O)c3c(Cl)cccc3C(F)(F)F)c3ccccc23)CC1` (centres unmarked) [Example 1H, 4-(1-(2-chloro-6-(trifluoromethyl)benzoyl)-1H-indazol-3-yl)cyclohex-3-enecarboxylic acid], 20 nM; to `COC1CN(C(=O)c2ccc3c(C4=CC[C@@](C)(C(=O)O)CC4)nn(C(=O)c4c(Cl)cccc4C4CC4)c3c2)C1` (single isomer, unassigned) [Example 2D, (S or R)-4-(1-(2-chloro-6-cyclopropylbenzoyl)-6-(3-methoxyazetidine-1-carbonyl)-1H-indazol-3-yl)-1-methylcyclohex-3-enecarboxylic acid], 5 nM.
As to `COC1CN(C(=O)c2ccc3c(C4=CCC(C(=O)O)CC4)nn(C(=O)c4c(Cl)cccc4C(F)(F)F)c3c2)C1` (centres unmarked) [Example 4E, 4-(1-(2-chloro-6-(trifluoromethyl)benzoyl)-6-(3-methoxyazetidine-1-carbonyl)-1H-indazol-3-yl)cyclohex-3-enecarboxylic acid], the IC50 was 2 nM.
As for `C[C@]1(C(=O)O)CC[C@@H](c2nn(C(=O)c3c(Cl)cccc3C(F)(F)F)c3cccc(F)c32)CC1` [Example 9B, (cis)-4-(1-(2-chloro-6-(trifluoromethyl)benzoyl)-4-fluoro-1H-indazol-3-yl)-1-methylcyclohexanecarboxylic acid], the figure is 5020 nM.
To `CC(C)N(C)C(=O)c1ccc2c(C3=CCC(C(=O)O)CC3)nn(C(=O)c3c(Cl)cccc3C(F)(F)F)c2c1` (centres unmarked) [Example 4U, 4-(1-(2-chloro-6-(trifluoromethyl)benzoyl)-6-(isopropyl(methyl)carbamoyl)-1H-indazol-3-yl)cyclohex-3-enecarboxylic acid] belongs 164 nM; to `CC1(C(=O)O)CC=C(c2nn(C(=O)c3c(Cl)cccc3C(F)(F)F)c3cccc(Cl)c23)CC1` (centres unmarked) [Example 1I, 4-(4-chloro-1-(2-chloro-6-(trifluoromethyl)benzoyl)-1H-indazol-3-yl)-1-methylcyclohex-3-enecarboxylic acid], 14 nM.
`CC(C)NC(=O)c1ccc2c(C3=CCC(C(=O)O)CC3)nn(C(=O)c3c(Cl)cccc3C(F)(F)F)c2c1` (centres unmarked) [Example 4T, 4-(1-(2-chloro-6-(trifluoromethyl)benzoyl)-6-(isopropylcarbamoyl)-1H-indazol-3-yl)cyclohex-3-enecarboxylic acid]: the IC50 worked out at 1120 nM.
Turning to `C[C@@H]1CN(C(=O)c2ccc3c(C4=CCC(C(=O)O)CC4)nn(C(=O)c4c(Cl)cccc4C(F)(F)F)c3c2)C[C@H](C)O1` (stereo partly drawn) [Example 4M, 4-(1-(2-chloro-6-(trifluoromethyl)benzoyl)-6-((2R,6S)-2,6-dimethylmorpholine-4-carbonyl)-1H-indazol-3-yl)cyclohex-3-enecarboxylic acid], the IC50 amounted to 21 nM.
As for `CC1CC(C(=O)O)CC=C1c1nn(C(=O)c2c(Cl)cccc2C(F)(F)F)c2cccc(F)c12` (racemic) [Example 12A, 4-(1-(2-chloro-6-(trifluoromethyl)benzoyl)-4-fluoro-1H-indazol-3-yl)-5-methylcyclohex-3-enecarboxylic acid], the figure is 54 nM.
